# Test results from ChEMBL document CHEMBL4190382, “Targeting lysine specific demethylase 4A (KDM4A) tandem TUDOR domain - A fragment based approach” (Bioorg Med Chem Lett, 2018).
# Assays:
# [1] = target: T1, Lysine-specific demethylase 4B (Homo sapiens, UniProt O94953); experiment: Binding affinity to 6His-tagged and human KDM4B tandem TUDOR domain (916 to 1030 residues) expressed in Escherichia coli BL21(DE3)-T1R by ITC method
# T1 sequence (O94953 whole entry): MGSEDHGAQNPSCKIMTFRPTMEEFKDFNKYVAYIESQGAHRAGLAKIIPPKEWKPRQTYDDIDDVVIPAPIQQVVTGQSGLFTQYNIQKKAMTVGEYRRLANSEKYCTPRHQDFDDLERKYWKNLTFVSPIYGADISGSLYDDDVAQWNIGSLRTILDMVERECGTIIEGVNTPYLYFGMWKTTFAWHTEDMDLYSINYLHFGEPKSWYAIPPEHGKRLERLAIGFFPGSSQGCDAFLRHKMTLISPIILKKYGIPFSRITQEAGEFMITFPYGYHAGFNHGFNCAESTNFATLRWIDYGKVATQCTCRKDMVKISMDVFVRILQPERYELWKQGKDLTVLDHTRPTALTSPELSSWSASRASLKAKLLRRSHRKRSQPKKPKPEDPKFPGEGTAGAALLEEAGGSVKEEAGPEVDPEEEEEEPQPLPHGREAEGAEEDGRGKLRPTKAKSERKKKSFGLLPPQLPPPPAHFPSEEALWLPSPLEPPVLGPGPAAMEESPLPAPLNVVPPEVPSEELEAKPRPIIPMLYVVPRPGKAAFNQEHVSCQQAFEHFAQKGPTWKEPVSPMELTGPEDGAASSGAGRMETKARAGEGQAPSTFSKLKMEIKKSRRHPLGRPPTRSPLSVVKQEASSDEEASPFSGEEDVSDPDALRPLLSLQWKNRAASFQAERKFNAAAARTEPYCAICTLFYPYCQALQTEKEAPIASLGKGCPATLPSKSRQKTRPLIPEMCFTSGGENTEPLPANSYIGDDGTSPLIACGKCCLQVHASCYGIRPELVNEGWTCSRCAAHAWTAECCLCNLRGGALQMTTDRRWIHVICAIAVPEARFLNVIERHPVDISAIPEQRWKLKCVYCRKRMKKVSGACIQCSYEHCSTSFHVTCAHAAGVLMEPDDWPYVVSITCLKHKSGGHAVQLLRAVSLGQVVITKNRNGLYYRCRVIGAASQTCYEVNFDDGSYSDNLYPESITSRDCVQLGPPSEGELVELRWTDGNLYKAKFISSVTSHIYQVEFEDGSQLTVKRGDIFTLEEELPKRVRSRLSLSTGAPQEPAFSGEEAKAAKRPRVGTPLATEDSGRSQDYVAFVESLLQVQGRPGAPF
# [2] = target: TP53-binding protein 1 (Homo sapiens, UniProt Q12888); experiment: Binding affinity to 6His-tagged and human 53BP1 tandem TUDOR domain (1488 to 1611 residues) expressed in Escherichia coli BL21(DE3)-T1R by ITC method
# TP53-binding protein 1, sequence (Q12888 whole entry, the tested form may be a part): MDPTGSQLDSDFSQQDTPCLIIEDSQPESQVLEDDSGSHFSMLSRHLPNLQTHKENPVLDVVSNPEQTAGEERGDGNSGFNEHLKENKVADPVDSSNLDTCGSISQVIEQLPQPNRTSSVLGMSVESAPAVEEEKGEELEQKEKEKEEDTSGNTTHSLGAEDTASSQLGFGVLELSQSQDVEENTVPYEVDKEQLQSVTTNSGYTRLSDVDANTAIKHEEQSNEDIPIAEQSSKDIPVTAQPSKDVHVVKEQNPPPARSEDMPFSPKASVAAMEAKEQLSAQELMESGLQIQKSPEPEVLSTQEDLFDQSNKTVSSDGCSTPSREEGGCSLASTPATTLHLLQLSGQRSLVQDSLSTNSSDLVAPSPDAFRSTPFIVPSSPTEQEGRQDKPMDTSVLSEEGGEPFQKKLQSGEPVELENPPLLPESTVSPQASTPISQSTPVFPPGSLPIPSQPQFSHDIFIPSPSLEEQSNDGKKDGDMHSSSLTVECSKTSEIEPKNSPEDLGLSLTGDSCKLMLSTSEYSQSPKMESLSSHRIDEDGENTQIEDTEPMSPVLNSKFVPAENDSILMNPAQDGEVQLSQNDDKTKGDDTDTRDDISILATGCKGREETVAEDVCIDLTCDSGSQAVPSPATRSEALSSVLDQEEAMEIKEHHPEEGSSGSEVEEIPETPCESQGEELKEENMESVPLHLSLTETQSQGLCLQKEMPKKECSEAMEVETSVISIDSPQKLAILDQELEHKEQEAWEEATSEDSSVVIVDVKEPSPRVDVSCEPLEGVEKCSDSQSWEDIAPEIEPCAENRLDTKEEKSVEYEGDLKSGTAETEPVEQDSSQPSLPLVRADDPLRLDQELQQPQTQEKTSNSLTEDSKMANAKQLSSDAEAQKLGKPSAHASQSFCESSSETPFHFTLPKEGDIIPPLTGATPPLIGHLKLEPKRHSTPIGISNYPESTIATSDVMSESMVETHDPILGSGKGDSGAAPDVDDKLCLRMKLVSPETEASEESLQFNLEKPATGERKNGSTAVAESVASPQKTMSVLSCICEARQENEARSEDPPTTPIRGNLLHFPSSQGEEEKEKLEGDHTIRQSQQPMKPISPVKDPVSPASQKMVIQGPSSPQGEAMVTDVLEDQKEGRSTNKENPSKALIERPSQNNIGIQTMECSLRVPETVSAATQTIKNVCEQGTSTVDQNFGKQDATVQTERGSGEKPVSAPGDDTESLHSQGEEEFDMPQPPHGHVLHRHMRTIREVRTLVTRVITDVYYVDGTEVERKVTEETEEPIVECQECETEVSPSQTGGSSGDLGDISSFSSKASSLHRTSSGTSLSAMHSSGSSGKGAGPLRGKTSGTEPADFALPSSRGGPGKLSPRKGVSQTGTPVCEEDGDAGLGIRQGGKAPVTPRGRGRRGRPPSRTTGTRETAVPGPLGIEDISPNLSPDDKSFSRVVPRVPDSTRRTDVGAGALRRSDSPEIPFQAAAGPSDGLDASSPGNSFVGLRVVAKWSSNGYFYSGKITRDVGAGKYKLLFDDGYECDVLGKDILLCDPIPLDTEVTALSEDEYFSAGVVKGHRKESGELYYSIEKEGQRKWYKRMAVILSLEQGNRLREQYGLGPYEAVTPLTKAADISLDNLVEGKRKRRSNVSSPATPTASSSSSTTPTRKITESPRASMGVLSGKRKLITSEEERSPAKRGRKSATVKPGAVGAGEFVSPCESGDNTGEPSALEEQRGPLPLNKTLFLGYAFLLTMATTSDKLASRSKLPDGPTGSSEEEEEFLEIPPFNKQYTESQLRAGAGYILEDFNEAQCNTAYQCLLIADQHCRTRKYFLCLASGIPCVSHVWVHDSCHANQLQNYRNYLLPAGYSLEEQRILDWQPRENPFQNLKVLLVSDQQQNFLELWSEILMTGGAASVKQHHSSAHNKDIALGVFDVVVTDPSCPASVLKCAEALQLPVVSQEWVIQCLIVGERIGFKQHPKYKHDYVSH
# [3] = target: T2, Lysine-specific demethylase 4A (Homo sapiens, UniProt O75164); experiment: Inhibition of H3(1-10)K4me3 peptide binding to thrombin cleavable N-terminal 6His tagged and 13C-IVLM labeled human KDM4A tandem TUDOR domain (897 to 1011 residues) expressed in Escherichia coli BL21(DE3)-T1R by ITC method
# T2 sequence (O75164 whole entry): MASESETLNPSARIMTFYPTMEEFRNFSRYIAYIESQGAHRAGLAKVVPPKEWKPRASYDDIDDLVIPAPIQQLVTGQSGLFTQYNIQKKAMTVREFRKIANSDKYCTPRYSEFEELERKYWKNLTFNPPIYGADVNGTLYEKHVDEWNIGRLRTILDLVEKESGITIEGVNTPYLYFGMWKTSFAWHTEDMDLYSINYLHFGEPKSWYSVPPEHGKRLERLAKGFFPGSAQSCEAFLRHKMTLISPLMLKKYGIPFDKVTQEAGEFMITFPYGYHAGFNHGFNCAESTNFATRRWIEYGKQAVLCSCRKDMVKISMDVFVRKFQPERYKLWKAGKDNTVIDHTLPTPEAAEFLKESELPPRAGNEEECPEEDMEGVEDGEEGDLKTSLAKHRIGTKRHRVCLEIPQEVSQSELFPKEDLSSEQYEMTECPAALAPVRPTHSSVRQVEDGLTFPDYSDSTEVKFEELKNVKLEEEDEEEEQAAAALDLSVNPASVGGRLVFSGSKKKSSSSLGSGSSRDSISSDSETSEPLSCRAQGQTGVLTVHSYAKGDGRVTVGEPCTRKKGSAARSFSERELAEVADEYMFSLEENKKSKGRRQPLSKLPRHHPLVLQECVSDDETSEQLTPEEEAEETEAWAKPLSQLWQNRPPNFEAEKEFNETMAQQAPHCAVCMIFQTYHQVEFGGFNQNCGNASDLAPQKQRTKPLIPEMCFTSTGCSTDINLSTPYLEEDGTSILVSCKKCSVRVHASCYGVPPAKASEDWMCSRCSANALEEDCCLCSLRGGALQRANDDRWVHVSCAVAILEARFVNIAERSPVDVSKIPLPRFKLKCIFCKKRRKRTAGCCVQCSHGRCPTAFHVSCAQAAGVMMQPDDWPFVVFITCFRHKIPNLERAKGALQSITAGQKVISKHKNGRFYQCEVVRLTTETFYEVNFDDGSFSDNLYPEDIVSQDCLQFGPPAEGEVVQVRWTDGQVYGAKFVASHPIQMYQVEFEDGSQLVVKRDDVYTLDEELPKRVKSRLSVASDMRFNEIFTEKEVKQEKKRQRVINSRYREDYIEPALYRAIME
smiles,measurement,setting,value
CN(C)C[C@H]1C2CCC(c3ccccc3)(C2)[C@H]1O (stereo partly drawn),Kd,[1],127 µM
same,Kd,[2],Not Active
same,Ki,[3],170 µM
